# Where two headings read alike, the source gives them in different places.
# Tests used:
# [1] = tested on: isolated rabbit thoracic aorta (potential-dependent calcium channel); assay: Calcium Entry Blockade test: 45Ca influx in vascular rings; conditions: for calcium channel blocking / calcium entry blockade activity: overall result in words
# Description: (§1) A fourth test for determining the ability of compounds of the invention to act as anti-hypertensive agents is the Calcium Entry Blockade test using vascular smooth muscle. Male New Zealand White Rabbits (H.A.R.E.) (body weight=1.8-2.4 kg) are sacrificed by cervical fracture and the thoracic aorta is removed under standard HEPES buffer. The aorta is rinsed in several changes of standard HEPES and cleared of extraneous tissue. Scissors are used to segment the aorta into 3 mm rings (approximately 12 rings/aorta). For studies of tension, individual rings are equilibrated for one hour in standard HEPES buffer under isometric tension (1 g) between two parallel horizontal wires. For calcium influx studies, the following procedures are executed. After completion of the one-hour equilibration period, the test is begun. To baths containing vascular rings to be tested for the effects of an experimental agent on calcium influx in the basal state (absence of an agonist), the agent dissolved in 20 μl of vehicle (PEG 300 or H2 O) is added and a parallel vehicle bath is started receiving the vehicle alone. To baths containing vascular rings to be tested for the effects of an experimental agent on calcium influx during agonist stimulation, the experimental agent is added in a fashion identical to that described for the basal test and parallel vehicle baths are also initiated. All baths are allowed to equilibrate for 30 minutes. Subsequently, to basal test baths, 20 μl of H2 O is added; to baths receiving KCl, 400 μl of H2 O containing 60 mM KCl is added; to baths receiving NE, 20 μl of H2 O containing 10 μM NE is added. All baths are allowed to equilibrate for an additional 281/2 minutes. At this time, all rings in each bath are removed from their respective bath, quickly but gently blotted and transferred to a bath containing an identical solution but also containing ^45 Ca(20 μl, 2.5 μCi/ml; New England Nuclear, Boston, MA). Rings are allowed exposure to the radiolabelled solution for exactly three minutes. Subsequently, the rings are removed, blotted to remove excess fluid, and placed in predesignated test tubes containing ice cold wash solution where they are allowed to equilibrate for 45 minutes in the presence of vigorous bubbling with 100% O2. Subsequently, individual rings are removed, blotted, weighed (Mettler Balance model AE 163), and placed in a scintillation vial containing 2 ml of 7.5 mM EDTA solution (pH=10.0). Vials are held overnight in darkness. […] Subsequently, 13 ml of Beckman HP scintillation fluid is added to each vial with shaking, vials are cleaned, and counted using a Beckman LS 6800 liquid scintillation counter. Blanks containing solutions alone are simultaneously counted to provide background information.
# (§2) For tension studies, the following procedures are executed. After completion of the one-hour equilibration period, the test is begun. At this time, all tissue tensions are adjusted mechanically back to the 1 gram baseline. Subsequently, all tissue baths receive either KCl (60 mM) plus phentolamine (1 μM) in 400 μl H2 O or NE (10 μM in 20 μl PEG 300). All rings are allowed to develop tension for exactly 30 minutes. Subsequently, the bathing solution is removed and replaced immediately with normal HEPES buffer without experimental agents and the tension response is allowed to "wash out". Two subsequent washes are introduced at 10 minute intervals before the rings can achieve the prestimulation baseline tone. Subsequently, the experimental drug or vehicle is added to each bath and the rings are allowed to equilibrate for exactly 30 minutes. Finally, the agonist challenge is repeated as described previously in the presence of the experimental agent. […]
# [2] = tested on: isolated rabbit thoracic aorta; assay: Calcium Entry Blockade test: tension (tone) of vascular rings; conditions: for inhibition at 10 µM: Oryctolagus cuniculus, 10 μM compound
# Description: as §1, §2
# Beta Adrenergic = assay: Evaluation of Potential Beta Adrenergic Blocking Activity; set-up: species or system guinea pig; conditions: overall result in words
# [3] = tested on: Isolated Heart (coronary arteries); assay: Langendorff's Isolated Heart model (coronary vasodilation)
# Method: In addition to their utility in the treatment of hypertension, the compounds of formula (I) are useful in the treatment of the symptoms of angina pectoris by virtue of their ability to dilate coronary arteries. Often, peripheral arteries are also dilated by compounds which dilate coronary arteries and thus, this test is also useful for predicting activity as an antihypertensive. Compounds of the invention were tested in this regard in the "Langendorff's Isolated Heart" model as generally described in "Pharmaceutical Experiments on Isolated Preparations", Staff of the Department of Pharmacology, University of Edinbourgh, 2nd Ed., Churchill, Livingston, N.Y. (1970) pages 112-119. In this test, the compound of the invention of formula (I) produced in Example 6b. required a 0.04 μM concentration to elicit a 30% increase in flow.
# [4] = tested on: spontaneously hypertensive rats; assay: Spontaneously Hypertensive Rat (SHR) test, mean arterial pressure via aortic cannula; type: in vivo; conditions: 30 mg per kg of body weight, p.o.
# Description: The activity of compounds of formula (I) for the treatment of hypertension may be determined using the Spontaneously Hypertensive Rat (SHR) test as described below.
# In this test, the arterial pressure of adult spontaneously hypertensive rats (Charles River) is monitored directly via an aortic cannula. The SH rats are anesthetized with an inhalation anesthetic (ether). The left carotid artery is isolated and cannulated. The tip of the cannula is advanced to the aorta and the cannula is exteriorized behind the neck at the level of the scapula. Animals are placed in individual cages and allowed to recover from the anesthetic and are kept unrestrained. The arterial cannula is connected to the pressure transducer which is attached to the recorder. The test compounds are administered to at least 3 rats at doses selected in the range of 0.1 to 100 mg/kg of body weight by intraperitoneal (i.p.) or oral (p.o.) routes of administration. The arterial pressure and heart rate are monitored for a minimum of 24 hours. A test compound is considered to be active as an antihypertensive agent if the mean arterial pressure (MAP) indicates a fall of >15 mm of Hg. Each animal serves as its own control.
# Beta-1 = biological target: T1, Beta-1 (Cavia porcellus, UniProt H0W3H1); conditions: guinea pig atrial pairs, isoproterenol tachycardia, Schild plot; read-out: pA2 (converted)
# T1 construct: The atria were mounted in 50 ml baths in Krebs-bicarbonate buffer; from tissue; host or cells: guinea pig atria (isolated atrial pairs, female animals)
# T1 sequence (H0W3H1 1-470): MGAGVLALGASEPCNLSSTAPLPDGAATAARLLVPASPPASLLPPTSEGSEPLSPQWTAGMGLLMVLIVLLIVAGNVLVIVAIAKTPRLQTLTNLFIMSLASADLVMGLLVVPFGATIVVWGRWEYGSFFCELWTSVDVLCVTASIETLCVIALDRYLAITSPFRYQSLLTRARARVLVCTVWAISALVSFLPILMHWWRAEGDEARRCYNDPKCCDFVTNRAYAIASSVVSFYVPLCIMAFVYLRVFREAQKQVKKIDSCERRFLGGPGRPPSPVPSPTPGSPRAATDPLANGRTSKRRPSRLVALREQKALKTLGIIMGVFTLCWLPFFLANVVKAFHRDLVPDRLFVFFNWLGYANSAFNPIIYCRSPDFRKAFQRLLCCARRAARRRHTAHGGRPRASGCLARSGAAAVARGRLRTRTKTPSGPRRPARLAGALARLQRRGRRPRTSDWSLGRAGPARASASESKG
# [5] = KCl stimulated, 1.0 and 10.0 μM
# [6] = isolated Langendorff test, 0.01 to 3.0 μM
smiles,measurement,setting,value
"CC(C)(C)NCC(O)COc1ccccc1C#Cc1ccccc1.Cl (stereo not shown) [Example 1d, 1-[(1,1-Dimethylethyl)amino]-3-[2-(phenylethynyl)phenoxy]-2-propanol Hydrochloride]",inhibition of KCl stimulated calcium influx,"[1]; KCl stimulated, 10 μM compound",100%
same,inhibition of KCl stimulated effects on calcium influx,[1]; [5],dose dependent inhibition
same,blockade of the potential-dependent calcium channel,[1]; isolated rabbit thoracic aorta,significant blockade
same,calcium channel blocking / calcium entry blockade activity,[1]; isolated rabbit thoracic aorta,calcium entry blockade activities
same,effect on norepinephrine-induced calcium influx,[1],no effect
same,inhibition of KCl stimulated effects on tone,[2]; [5],dose dependent inhibition
same,inhibition at 10 µM,"[2]; KCl stimulated, read-out: inhibition of KCl stimulated tone",100%
same,blockade of related vascular tone,[2]; isolated rabbit thoracic aorta,significant blockade
same,effect on norepinephrine-induced tone / tension,[2],no effect
same,β-blocking activity,Beta Adrenergic,β-blocking
"COc1ccc(C#Cc2ccccc2)c(OCC(O)CNCCc2ccc(OC)c(OC)c2)c1 (stereo not shown) [Example 6b, 1-[[2-(3,4-Dimethyoxyphenyl)ethyl]amino]-3-[5-methoxy-2-(phenylethynyl)phenoxy]-2-propanol (E)-2-Butenedioate (2:1)]",EC30,"[3]; Langendorff isolated heart, 30% increase in flow, read-out: concentration required to elicit a 30% increase in flow",40 nM
same,activation at 0.1 µM,[3]; at 0.1 μM,39%
same,coronary vasodilator activity,[3]; [6],active coronary vasodilator
same,effect on contractile force,[3]; [6],no effect
same,effect on spontaneous rate,[3]; [6],no effect
"CN(C)c1ccc(C#Cc2ccccc2OCC(O)CNC(C)(C)C)cc1.O=C(O)/C=C/C(=O)O (stereo not shown) [Example 16, 1-[(1,1-Dimethylethyl)amino]-3-[2-[(4-dimethylaminophenyl)ethynyl]phenoxy]-2-propanol (E)-2-Butenedioate (1:1)]",effect on KCl-dependent calcium flux,"[1]; KCl-dependent, 10 μM compound",no effect
same,calcium channel blocking / calcium entry blockade activity,[1]; isolated rabbit thoracic aorta,did not exhibit typical calcium channel blocking activity
same,effect on norepinephrine-induced calcium influx,[1],reduced norepinephrine-induced calcium flux
same,inhibition at 10 µM,"[2]; KCl-dependent, read-out: reduction of KCl-dependent contractile activity",50%
same,effect on norepinephrine-induced tone / tension,[2],without changing tension
same,maximum change in mean arterial blood pressure (fall),[4],69 mm of Hg
"CC(=O)Nc1cccc(C#Cc2ccccc2OCC(O)CNC(C)(C)C)c1 (stereo not shown) [Example 18, N-[3-[[2-[3-[(1,1-Dimethylethyl)amino]-2-hydroxypropoxy]phenyl]ethynyl]phenyl]acetamide 4-methylbenzene sulfonate]",Kb,Beta-1,7.08 nM

# Reference: patent publication US4652584A, “Acetylenic phenoxypropanol derivatives and pharmaceutical compositions for the treatment of hypertension” (McNeilab, Inc., priority 1984, dated 1987)
